In assay [1] the target is T1, MAST1 (Homo sapiens, UniProt Q9Y2H9).
T1 construct: purchased Eurofins DiscoverX KINOMEscan
Nature of the assay: KINOMEscan 1 μM, MAST1. The format is binding. Conditions: 1000 nM; Entrez MAST1; read-out: Percent Control. The source says:
(§1) Supplement cells-12-00287-s001.zip/File S2. KinomeScan data for the CAMKK2 probe and negative control.xlsx, sheet "SGC-CAMKK2-1" | column: Percent Control

In assay [2] the target is T2, ABL1(F317L)-nonphosphorylated (Homo sapiens, UniProt P00519, F317L).
T2 construct: purchased Eurofins DiscoverX KINOMEscan
Nature of the assay: KINOMEscan 1 μM, ABL1(F317L)-nonphosphorylated. Type of assay: binding. Conditions: 1000 nM; Entrez ABL1; read-out: Percent Control.
From the text: as §1

Assay [3] addresses T3, RIOK3 (Homo sapiens, UniProt O14730).
T3 construct: purchased Eurofins DiscoverX KINOMEscan
Nature of the assay: KINOMEscan 1 μM, RIOK3. Conditions: 1000 nM; Entrez RIOK3; read-out: Percent Control. The format is binding.
From the text: as §1

Assay [4] concerns the target T4, ABL1(H396P)-phosphorylated (Homo sapiens, UniProt P00519, H396P).
T4 construct: purchased Eurofins DiscoverX KINOMEscan
Briefly: KINOMEscan 1 μM, ABL1(H396P)-phosphorylated. The format is binding. Conditions: 1000 nM; Entrez ABL1; read-out: Percent Control.
From the text: as §1

For assay [5], the target named is T5, PKNB(M.tuberculosis) (Mycobacterium tuberculosis, UniProt P9WI81).
T5 construct: purchased Eurofins DiscoverX KINOMEscan
T5 sequence (P9WI81 whole entry): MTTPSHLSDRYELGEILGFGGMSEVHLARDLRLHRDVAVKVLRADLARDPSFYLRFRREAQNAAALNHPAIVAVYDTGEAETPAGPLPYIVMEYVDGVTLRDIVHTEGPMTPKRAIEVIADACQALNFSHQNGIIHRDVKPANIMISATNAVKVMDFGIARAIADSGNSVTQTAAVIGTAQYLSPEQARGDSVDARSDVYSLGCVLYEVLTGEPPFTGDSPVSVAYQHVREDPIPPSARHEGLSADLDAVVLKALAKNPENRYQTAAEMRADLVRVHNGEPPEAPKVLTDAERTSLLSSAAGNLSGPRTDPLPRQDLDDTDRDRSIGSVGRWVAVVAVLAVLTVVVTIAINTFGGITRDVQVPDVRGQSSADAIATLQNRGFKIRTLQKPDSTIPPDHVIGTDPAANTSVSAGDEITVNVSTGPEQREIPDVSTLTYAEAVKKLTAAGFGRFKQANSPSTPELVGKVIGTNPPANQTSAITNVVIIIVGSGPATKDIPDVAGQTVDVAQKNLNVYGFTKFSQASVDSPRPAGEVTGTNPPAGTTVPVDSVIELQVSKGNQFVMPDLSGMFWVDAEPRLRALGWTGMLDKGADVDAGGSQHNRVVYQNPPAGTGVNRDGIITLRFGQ
Nature of the assay: KINOMEscan 1 μM, PKNB(M.tuberculosis). Conditions: 1000 nM; Entrez pknB; read-out: Percent Control. Type of assay: binding.
From the text: as §1

In assay [6] the target is T6, FLT1 (Homo sapiens, UniProt P17948).
T6 construct: purchased Eurofins DiscoverX KINOMEscan
Briefly: KINOMEscan 1 μM, FLT1. Type of assay: binding. Conditions: 1000 nM; Entrez FLT1; read-out: Percent Control.
From the text: as §1

In assay [7] the target is T7, FGFR3 (Homo sapiens, UniProt P22607).
T7 construct: purchased Eurofins DiscoverX KINOMEscan
Nature of the assay: KINOMEscan 1 μM, FGFR3. The format is binding. The following applies: 1000 nM; Entrez FGFR3; read-out: Percent Control.
From the text: as §1

Assay [8] addresses T8, TSSK3 (Homo sapiens, UniProt Q96PN8).
T8 construct: purchased Eurofins DiscoverX KINOMEscan
Nature of the assay: KINOMEscan 1 μM, TSSK3. The following applies: 1000 nM; Entrez TSSK3; read-out: Percent Control. Type of assay: binding.
From the text: as §1

The target in assay [9] is T9, AXL (Homo sapiens, UniProt P30530).
T9 construct: purchased Eurofins DiscoverX KINOMEscan
T9 sequence (P30530 26-894): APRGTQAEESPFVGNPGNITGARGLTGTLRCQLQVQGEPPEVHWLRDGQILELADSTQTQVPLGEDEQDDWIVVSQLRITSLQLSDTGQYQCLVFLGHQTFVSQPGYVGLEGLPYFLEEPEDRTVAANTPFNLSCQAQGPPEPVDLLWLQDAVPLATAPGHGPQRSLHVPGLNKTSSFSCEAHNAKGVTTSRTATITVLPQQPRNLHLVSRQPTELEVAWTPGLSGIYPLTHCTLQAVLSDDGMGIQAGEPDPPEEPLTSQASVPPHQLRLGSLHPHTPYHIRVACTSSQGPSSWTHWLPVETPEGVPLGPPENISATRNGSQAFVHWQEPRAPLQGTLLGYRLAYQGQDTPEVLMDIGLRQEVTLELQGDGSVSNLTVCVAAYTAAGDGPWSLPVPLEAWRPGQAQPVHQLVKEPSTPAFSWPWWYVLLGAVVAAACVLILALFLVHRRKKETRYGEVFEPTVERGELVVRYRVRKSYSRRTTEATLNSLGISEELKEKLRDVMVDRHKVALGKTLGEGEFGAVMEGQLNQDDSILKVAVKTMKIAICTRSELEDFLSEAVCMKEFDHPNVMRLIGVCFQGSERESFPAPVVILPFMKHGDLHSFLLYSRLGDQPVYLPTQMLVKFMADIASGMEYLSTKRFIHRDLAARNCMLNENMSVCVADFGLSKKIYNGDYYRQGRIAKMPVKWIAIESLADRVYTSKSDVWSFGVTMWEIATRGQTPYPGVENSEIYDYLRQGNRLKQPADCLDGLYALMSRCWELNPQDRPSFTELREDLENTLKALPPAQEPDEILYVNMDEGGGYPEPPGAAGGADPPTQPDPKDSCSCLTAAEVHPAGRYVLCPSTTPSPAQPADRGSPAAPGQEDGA
Nature of the assay: KINOMEscan 1 μM, AXL. Type of assay: binding. The following applies: 1000 nM; Entrez AXL; read-out: Percent Control.
From the text: as §1

Assay [10] addresses T10, CAMK2G (Homo sapiens, UniProt Q13555).
T10 construct: purchased Eurofins DiscoverX KINOMEscan
Nature of the assay: KINOMEscan 1 μM, CAMK2G. The following applies: 1000 nM; Entrez CAMK2G; read-out: Percent Control. Type of assay: binding.
From the text: as §1

Assay [11] concerns the target T11, CDK4-cyclinD3 (Homo sapiens, UniProt P11802).
T11 construct: purchased Eurofins DiscoverX KINOMEscan
Briefly: KINOMEscan 1 μM, CDK4-cyclinD3. The format is binding. Conditions: 1000 nM; Entrez CDK4; read-out: Percent Control.
From the text: as §1

The target in assay [12] is T12, CDK5 (Homo sapiens, UniProt Q00535).
T12 construct: purchased Eurofins DiscoverX KINOMEscan
Nature of the assay: KINOMEscan 1 μM, CDK5. Type of assay: binding. Conditions: 1000 nM; Entrez CDK5; read-out: Percent Control.
From the text: as §1

For assay [13], the target named is T13, HASPIN (Homo sapiens, UniProt Q8TF76).
T13 construct: purchased Eurofins DiscoverX KINOMEscan
T13 sequence (Q8TF76 whole entry): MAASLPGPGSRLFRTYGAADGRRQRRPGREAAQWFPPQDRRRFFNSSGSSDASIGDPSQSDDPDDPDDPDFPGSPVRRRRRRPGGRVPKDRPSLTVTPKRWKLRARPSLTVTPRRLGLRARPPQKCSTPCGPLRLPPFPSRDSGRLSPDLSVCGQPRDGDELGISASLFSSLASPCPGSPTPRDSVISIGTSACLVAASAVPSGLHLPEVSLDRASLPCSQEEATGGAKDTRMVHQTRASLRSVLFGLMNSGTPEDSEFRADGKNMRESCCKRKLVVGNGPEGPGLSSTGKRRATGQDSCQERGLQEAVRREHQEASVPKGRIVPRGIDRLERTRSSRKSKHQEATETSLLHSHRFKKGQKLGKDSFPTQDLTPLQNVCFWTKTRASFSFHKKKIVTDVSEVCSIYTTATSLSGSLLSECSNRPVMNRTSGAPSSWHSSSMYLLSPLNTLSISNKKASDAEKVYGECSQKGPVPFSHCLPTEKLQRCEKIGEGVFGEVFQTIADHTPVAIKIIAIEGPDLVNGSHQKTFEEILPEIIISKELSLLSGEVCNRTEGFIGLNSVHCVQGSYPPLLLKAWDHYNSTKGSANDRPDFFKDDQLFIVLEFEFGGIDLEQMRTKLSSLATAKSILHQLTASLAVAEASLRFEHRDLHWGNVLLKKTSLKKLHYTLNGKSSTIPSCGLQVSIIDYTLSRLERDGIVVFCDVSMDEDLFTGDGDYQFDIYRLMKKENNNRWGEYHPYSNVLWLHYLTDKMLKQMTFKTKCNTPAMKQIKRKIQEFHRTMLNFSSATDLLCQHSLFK
Nature of the assay: KINOMEscan 1 μM, HASPIN. Type of assay: binding. The following applies: 1000 nM; Entrez GSG2; read-out: Percent Control.
From the text: as §1

The target in assay [14] is T14, MLK2 (Homo sapiens, UniProt Q02779).
T14 construct: purchased Eurofins DiscoverX KINOMEscan
Nature of the assay: KINOMEscan 1 μM, MLK2. The format is binding. Conditions: 1000 nM; Entrez MAP3K10; read-out: Percent Control.
From the text: as §1

Assay [15] concerns the target T15, NEK4 (Homo sapiens, UniProt P51957).
T15 construct: purchased Eurofins DiscoverX KINOMEscan
Nature of the assay: KINOMEscan 1 μM, NEK4. Type of assay: binding. Conditions: 1000 nM; Entrez NEK4; read-out: Percent Control.
From the text: as §1

For assay [16], the target named is T16, NIM1 (Homo sapiens, UniProt Q8IY84).
T16 construct: purchased Eurofins DiscoverX KINOMEscan
T16 sequence (Q8IY84 whole entry): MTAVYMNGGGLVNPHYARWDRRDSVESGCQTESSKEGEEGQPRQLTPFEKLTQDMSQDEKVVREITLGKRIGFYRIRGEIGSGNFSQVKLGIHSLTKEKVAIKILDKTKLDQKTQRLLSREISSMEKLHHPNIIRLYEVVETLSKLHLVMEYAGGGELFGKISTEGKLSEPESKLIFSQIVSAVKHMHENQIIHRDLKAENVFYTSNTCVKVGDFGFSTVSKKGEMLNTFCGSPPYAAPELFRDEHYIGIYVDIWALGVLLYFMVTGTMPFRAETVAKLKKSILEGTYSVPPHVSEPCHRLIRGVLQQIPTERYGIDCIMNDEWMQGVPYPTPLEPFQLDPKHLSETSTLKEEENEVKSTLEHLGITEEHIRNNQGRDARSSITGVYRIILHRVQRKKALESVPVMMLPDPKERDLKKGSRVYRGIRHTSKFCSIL
Nature of the assay: KINOMEscan 1 μM, NIM1. Type of assay: binding. Conditions: 1000 nM; Entrez MGC42105; read-out: Percent Control.
From the text: as §1

In assay [17] the target is T17, RSK3(Kin.Dom.2-C-terminal) (Homo sapiens, UniProt Q15349).
T17 construct: RSK3(Kin.Dom.2-C-terminal); purchased Eurofins DiscoverX KINOMEscan
Briefly: DiscoverX KINOMEscan binding assay at 1 μM, RSK3(Kin.Dom.2-C-terminal). Conditions: RSK3(Kin.Dom.2-C-terminal) (RPS6KA2); Compound Concentration 1000 nM; read-out: Percent Control.
From the text: as §1

For assay [18], the target named is T18, BMPR1B (Homo sapiens, UniProt O00238).
T18 construct: purchased Eurofins DiscoverX KINOMEscan
Nature of the assay: KINOMEscan at 1 μM, BMPR1B. Type of assay: binding. The following applies: 1000 nM, read-out: Percent Control. The source says: (§2) Supplement cells-12-00287-s001.zip/File S2. KinomeScan data for the CAMKK2 probe and negative control.xlsx, sheet "SGC-CAMKK2-1N" | column: Percent Control

Assay [19] deals with T19, MYLK (Homo sapiens, UniProt Q15746).
T19 construct: purchased Eurofins DiscoverX KINOMEscan
Nature of the assay: KINOMEscan at 1 μM, MYLK. The format is binding. Conditions: 1000 nM, read-out: Percent Control.
From the text: as §2

Assay [20] deals with T20, NEK1 (Homo sapiens, UniProt Q96PY6).
T20 construct: purchased Eurofins DiscoverX KINOMEscan
Briefly: KINOMEscan at 1 μM, NEK1. The following applies: 1000 nM, read-out: Percent Control. Type of assay: binding.
From the text: as §2

Assay [21] has as its target T21, PIP5K2B (Homo sapiens, UniProt P78356).
T21 construct: purchased Eurofins DiscoverX KINOMEscan
Briefly: KINOMEscan at 1 μM, PIP5K2B. The following applies: 1000 nM, read-out: Percent Control. The format is binding.
From the text: as §2

Assay [22] concerns the target T22, ABL1(F317L)-phosphorylated (Homo sapiens, UniProt P00519, F317L).
T22 construct: purchased Eurofins DiscoverX KINOMEscan
Nature of the assay: KINOMEscan at 1 μM, ABL1(F317L)-phosphorylated. Type of assay: binding. Conditions: 1000 nM, read-out: Percent Control.
From the text: as §2

Assay [23] has as its target T23, TYK2(JH2domain-pseudokinase) (Homo sapiens, UniProt P29597).
T23 construct: TYK2(JH2domain-pseudokinase); purchased Eurofins DiscoverX KINOMEscan
Nature of the assay: KINOMEscan at 1 μM, TYK2(JH2domain-pseudokinase). The format is binding. Conditions: 1000 nM, read-out: Percent Control.
From the text: as §2

Assay [24] has as its target T24, FLT3(R834Q) (Homo sapiens, UniProt P36888, R834Q).
T24 construct: purchased Eurofins DiscoverX KINOMEscan
Nature of the assay: KINOMEscan at 1 μM, FLT3(R834Q). The format is binding. The following applies: 1000 nM, read-out: Percent Control.
From the text: as §2

Assay [25] deals with T25, MELK (Homo sapiens, UniProt Q14680).
T25 construct: purchased Eurofins DiscoverX KINOMEscan
Nature of the assay: KINOMEscan at 1 μM, MELK. The following applies: 1000 nM, read-out: Percent Control. The format is binding.
From the text: as §2

The target of assay [26] is T26, AURKC (Homo sapiens, UniProt Q9UQB9).
T26 construct: purchased Eurofins DiscoverX KINOMEscan
Nature of the assay: KINOMEscan at 1 μM, AURKC. Conditions: 1000 nM, read-out: Percent Control. Type of assay: binding.
From the text: as §2

Assay [27] concerns the target T27, KIT(V559D,V654A) (Homo sapiens, UniProt P10721, V559D/V654A).
T27 construct: purchased Eurofins DiscoverX KINOMEscan
Nature of the assay: KINOMEscan at 1 μM, KIT(V559D,V654A). The format is binding. The following applies: 1000 nM, read-out: Percent Control.
From the text: as §2

In assay [28] the target is T28, ERK2 (Homo sapiens, UniProt P28482).
T28 construct: purchased Eurofins DiscoverX KINOMEscan
Briefly: KINOMEscan binding assay at 1 μM, ERK2. Conditions: Compound Concentration 1000 nM; read-out: Percent Control.
From the text: as §2

The target of assay [29] is T29, FGFR4 (Homo sapiens, UniProt P22455).
T29 construct: purchased Eurofins DiscoverX KINOMEscan
Briefly: KINOMEscan binding assay at 1 μM, FGFR4. Conditions: Compound Concentration 1000 nM; read-out: Percent Control.
From the text: as §2

In assay [30] the target is T1, MAST1. Briefly: KINOMEscan binding assay at 1 μM, MAST1. The following applies: Compound Concentration 1000 nM; read-out: Percent Control.
From the text: as §2

In assay [31] the target is T30, MST1 (Homo sapiens, UniProt Q13043).
T30 construct: purchased Eurofins DiscoverX KINOMEscan
Nature of the assay: KINOMEscan binding assay at 1 μM, MST1. Conditions: Compound Concentration 1000 nM; read-out: Percent Control.
From the text: as §2

Assay [32] deals with T31, ROS1 (Homo sapiens, UniProt P08922).
T31 construct: purchased Eurofins DiscoverX KINOMEscan
Briefly: KINOMEscan binding assay at 1 μM, ROS1. The following applies: Compound Concentration 1000 nM; read-out: Percent Control.
From the text: as §2

Consider two compounds from PMC9856672, “SGC-CAMKK2-1: A Chemical Probe for CAMKK2” (Cells, 2023).

T1 sequence (Q9Y2H9 whole entry): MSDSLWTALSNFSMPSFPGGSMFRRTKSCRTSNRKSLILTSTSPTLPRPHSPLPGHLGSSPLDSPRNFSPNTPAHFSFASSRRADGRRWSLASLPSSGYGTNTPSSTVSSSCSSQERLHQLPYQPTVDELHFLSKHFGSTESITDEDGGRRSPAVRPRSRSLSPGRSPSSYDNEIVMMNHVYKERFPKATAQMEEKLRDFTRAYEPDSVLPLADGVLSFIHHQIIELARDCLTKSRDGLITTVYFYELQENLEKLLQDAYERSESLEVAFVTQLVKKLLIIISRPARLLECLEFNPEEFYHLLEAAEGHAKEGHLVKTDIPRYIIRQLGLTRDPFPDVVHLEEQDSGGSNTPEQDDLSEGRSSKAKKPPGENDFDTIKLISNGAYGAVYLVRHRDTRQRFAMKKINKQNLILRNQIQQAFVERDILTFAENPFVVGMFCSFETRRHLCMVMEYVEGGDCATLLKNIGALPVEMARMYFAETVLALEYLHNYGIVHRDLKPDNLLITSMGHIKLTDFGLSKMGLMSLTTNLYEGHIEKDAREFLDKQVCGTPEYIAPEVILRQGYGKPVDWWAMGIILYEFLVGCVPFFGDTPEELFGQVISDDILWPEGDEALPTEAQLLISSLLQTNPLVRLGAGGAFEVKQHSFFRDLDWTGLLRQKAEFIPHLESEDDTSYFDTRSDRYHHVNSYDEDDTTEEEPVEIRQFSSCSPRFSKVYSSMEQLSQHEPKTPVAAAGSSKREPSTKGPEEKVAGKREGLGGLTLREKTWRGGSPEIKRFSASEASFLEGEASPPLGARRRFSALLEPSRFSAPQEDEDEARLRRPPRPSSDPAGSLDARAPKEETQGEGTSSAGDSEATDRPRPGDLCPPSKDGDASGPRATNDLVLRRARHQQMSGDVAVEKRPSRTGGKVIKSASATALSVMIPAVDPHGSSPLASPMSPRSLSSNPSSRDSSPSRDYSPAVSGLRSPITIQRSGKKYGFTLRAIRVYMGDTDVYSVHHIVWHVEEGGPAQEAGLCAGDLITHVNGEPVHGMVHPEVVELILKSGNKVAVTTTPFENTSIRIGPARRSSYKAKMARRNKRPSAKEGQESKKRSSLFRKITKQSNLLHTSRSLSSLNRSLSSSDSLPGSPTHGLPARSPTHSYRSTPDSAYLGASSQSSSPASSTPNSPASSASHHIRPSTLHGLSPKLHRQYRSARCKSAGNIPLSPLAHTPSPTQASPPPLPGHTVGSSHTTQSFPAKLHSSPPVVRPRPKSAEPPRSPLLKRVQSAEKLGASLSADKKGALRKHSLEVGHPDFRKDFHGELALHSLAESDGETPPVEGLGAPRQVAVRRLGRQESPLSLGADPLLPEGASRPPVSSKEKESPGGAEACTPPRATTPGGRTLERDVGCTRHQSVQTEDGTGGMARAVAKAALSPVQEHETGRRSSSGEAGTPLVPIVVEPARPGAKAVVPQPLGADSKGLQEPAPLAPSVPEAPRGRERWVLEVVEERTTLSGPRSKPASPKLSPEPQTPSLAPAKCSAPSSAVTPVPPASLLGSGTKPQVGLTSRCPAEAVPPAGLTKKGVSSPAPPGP
T11 sequence (P11802 whole entry): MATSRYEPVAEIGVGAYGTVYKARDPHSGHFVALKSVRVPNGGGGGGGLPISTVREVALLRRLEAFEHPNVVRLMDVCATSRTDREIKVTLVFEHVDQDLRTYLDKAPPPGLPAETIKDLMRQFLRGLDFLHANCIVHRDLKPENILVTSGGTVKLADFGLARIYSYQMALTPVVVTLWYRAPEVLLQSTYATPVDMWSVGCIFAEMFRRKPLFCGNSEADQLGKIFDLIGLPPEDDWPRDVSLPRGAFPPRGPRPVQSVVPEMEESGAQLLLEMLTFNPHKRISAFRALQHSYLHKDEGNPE
T11 sequence (P30281 whole entry partner): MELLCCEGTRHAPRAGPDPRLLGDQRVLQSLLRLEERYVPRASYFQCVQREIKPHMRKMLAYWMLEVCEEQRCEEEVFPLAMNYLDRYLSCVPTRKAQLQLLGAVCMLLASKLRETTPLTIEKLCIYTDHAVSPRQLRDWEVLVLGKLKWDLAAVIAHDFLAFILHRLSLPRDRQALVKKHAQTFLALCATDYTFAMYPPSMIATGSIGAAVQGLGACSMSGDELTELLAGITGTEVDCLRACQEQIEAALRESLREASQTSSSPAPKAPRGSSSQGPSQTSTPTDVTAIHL

For the compound `Cc1cccc(-c2cnc3occ(-c4ccc(C(=O)O)c(C5CCCC5)c4)c3c2)c1` [SGC-CAMKK2-1 (YL-36)], the remaining binding at 1 µM in [1] came to 65%; in assay [2] it was 71%; in assay [3], 75%; in [4], 77%; in assay [5], 90%; in assay [6], 93%. Further, the remaining binding at 1 µM is 95% in assay [7]; 98% in assay [8]; 100% in assay [9]; 100% in assay [10]; 100% in assay [11]; 100% in assay [12]. Moreover, the remaining binding at 1 µM in assay [13], in assay [14], in [15], in [16] and in assay [17] was 100% throughout.

On to `O=C(O)c1ccc(-c2coc3ncc(-c4ccccc4)cc23)cc1Cl` [SGC-CAMKK2-1N (UNC-YL-83)], for which the remaining binding at 1 µM is 65% in [18]; 69% in assay [19]; 71% in [20]; 74% in assay [21]; 79% in assay [22]; 83% in assay [23]. Besides, the remaining binding at 1 µM in assay [24] is 84%; in [25], 88%; in [26], 90%; in assay [27], 92%; in assay [28], 100%; in [29], 100%. The remaining binding at 1 µM in assay [30], in assay [31] and in [32] was 100% each time.
